Experimental data published in article PMC9516332 (Frontiers in Oncology, 2022).

Experiments:
Assay in all cases: Kinase panel profiling at 1 µmol/L (MSA or IMAP), percentage inhibition
Assay type in all cases: biochemical
[1] = target: T1, panel of 255 wild-type kinases (Homo sapiens, UniProt Q13043); settings: MST1; 1 µmol/L single concentration; read-out: %-inhibition, MST1
T1 sequence (Q13043 1-487): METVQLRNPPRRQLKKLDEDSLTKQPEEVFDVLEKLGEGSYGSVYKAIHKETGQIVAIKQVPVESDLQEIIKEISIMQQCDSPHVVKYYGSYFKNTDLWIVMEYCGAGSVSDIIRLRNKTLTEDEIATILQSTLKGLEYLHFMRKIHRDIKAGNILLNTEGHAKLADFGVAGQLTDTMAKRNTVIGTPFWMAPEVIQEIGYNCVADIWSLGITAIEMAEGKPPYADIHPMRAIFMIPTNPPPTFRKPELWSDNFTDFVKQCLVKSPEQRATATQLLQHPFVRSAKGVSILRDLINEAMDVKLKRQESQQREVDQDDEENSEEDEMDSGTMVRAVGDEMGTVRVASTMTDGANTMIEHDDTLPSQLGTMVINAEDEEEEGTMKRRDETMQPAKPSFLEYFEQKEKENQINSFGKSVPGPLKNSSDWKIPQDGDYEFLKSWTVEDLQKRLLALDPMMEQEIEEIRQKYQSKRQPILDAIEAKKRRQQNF

[2] = target: panel of 255 wild-type kinases (Homo sapiens, UniProt P16234); settings: kinase PDGFRα; 1 µmol/L single concentration; read-out: %-inhibition at 1 µmol/L, PDGFRα
[3] = target: panel of 255 wild-type kinases (Homo sapiens, UniProt P08069); settings: kinase IGF1R; 1 µmol/L single concentration; read-out: %-inhibition at 1 µmol/L, IGF1R
[4] = target: panel of 255 wild-type kinases (Homo sapiens, UniProt Q9H0K1); settings: kinase QIK; 1 µmol/L single concentration; read-out: %-inhibition at 1 µmol/L, QIK
[5] = target: T2, panel of 255 wild-type kinases (Homo sapiens, UniProt Q13976); settings: kinase PGK; 1 µmol/L single concentration; read-out: %-inhibition at 1 µmol/L, PGK
T2 sequence (Q13976 1-671): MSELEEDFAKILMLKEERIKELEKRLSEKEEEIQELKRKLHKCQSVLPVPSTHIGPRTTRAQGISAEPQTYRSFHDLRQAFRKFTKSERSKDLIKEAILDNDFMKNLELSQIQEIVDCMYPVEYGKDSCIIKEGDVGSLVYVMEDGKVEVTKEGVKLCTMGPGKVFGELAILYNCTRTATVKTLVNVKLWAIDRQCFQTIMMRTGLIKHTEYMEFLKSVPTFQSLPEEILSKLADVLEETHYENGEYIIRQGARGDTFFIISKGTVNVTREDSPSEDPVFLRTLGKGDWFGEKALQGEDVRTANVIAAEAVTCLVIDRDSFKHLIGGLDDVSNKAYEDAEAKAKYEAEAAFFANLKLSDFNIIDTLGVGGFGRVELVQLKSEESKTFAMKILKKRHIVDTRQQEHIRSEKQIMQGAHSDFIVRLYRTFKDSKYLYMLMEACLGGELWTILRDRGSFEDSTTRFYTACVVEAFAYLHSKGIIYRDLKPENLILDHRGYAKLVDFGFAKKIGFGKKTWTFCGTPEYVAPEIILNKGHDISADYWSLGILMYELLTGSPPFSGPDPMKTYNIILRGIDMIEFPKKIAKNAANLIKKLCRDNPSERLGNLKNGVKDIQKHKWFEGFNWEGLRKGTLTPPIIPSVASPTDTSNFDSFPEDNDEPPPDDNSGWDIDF

[6] = target: panel of 255 wild-type kinases (Homo sapiens, UniProt P49761); settings: kinase CLK3; 1 µmol/L single concentration; read-out: %-inhibition at 1 µmol/L, CLK3
[7] = target: T3, panel of 255 wild-type kinases (Homo sapiens, UniProt Q08881); settings: kinase ITK; 1 µmol/L single concentration; read-out: %-inhibition at 1 µmol/L, ITK
T3 sequence (Q08881 1-620): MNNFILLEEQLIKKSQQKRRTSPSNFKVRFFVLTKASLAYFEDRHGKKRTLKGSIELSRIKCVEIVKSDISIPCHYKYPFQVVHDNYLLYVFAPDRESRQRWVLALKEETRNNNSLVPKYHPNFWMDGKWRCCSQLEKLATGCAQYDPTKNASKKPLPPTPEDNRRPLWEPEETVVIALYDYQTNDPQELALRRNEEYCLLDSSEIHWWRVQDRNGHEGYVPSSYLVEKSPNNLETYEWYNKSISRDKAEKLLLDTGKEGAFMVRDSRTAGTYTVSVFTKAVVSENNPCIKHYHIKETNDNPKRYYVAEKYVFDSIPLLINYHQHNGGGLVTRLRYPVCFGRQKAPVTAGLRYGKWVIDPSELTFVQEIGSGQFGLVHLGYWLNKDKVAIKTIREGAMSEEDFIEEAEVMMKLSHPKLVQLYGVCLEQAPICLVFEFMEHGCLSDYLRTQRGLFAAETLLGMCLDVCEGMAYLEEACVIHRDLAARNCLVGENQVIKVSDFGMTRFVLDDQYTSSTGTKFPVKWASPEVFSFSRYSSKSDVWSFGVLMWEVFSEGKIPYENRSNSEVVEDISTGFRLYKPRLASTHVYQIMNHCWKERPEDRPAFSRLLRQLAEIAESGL

- inhibition at 1 µM [1]: 2.73%
- inhibition at 1 µM [2]: 69%
- inhibition at 1 µM [3]: 3.29%
- inhibition at 1 µM [4]: 68%
- inhibition at 1 µM [5]: 4%
- inhibition at 1 µM [6]: 2.5%
- inhibition at 1 µM [7]: 24%
SMILES: COc1cc2ncnc(Nc3ccc(F)c(Cl)c3)c2cc1NC(=O)/C=C/CN1CCCCC1 [dacomitinib]
